A value given as a limit tells only on which side of the number the result lay.

The test has as its system Daudi cells (AID positive). In words: Compound primary screening: cell death in AID positive Daudi cells (Cell-Titer Glo, Day 7). The format is cell-based. To be noted: Homo sapiens, 168 h; Daudi cells, AID positive; cell death on Day 7, Cell-Titer Glo; read-out: Cellular activity in AID + (Daudi). The method, then:
Example 149. Compound Primary Screening
AID expressing cells are dependent upon RAD51 for survival; inhibiting RAD51 in AID positive cells results in a cytotoxic effect.
A 96 well u-bottom plate was prepared by writing the experiment number, plate number, date and initials in the top right corner of the plate lid. With a sterile 300 ml reservoir, and 25 ml serological pipette, evaporation buffer media was pipetted into reservoir in 25 ml increments. Using the liquid handler, 150 ul of evaporation buffer media was pipetted from reservoir into rows A and H, and Columns 1 and 12 of the 96 well u-bottom plate. Cell cultures were counted to obtain the density of cells per ml, and the culture viability. The cell density information was used to obtain 1,000,000 cells from culture using a 5 mL serological pipette into an epi tube. The cell density information from the culture was used to calculate the number of cells and volume of media needed for the assay to seed 1250 cells in 130 ul of media per available culture well in the 96 well u-bottom plate. Rows B through F were used for cells (50 wells in total), with row G left for an empty media control. The calculation was overestimated by 10 mL to account for the dead volume in the 300 ml reservoir. Once the media volume was calculated, the appropriate volume of media was pipetted in 25 mL increments into the 250 mL bottle using a 25 mL serological pipette. The 250 ml bottle was capped tightly, and placed into a 37° C. water bath for 2 minutes. While the culture media was warming, 10 mL of fresh media was pipetted from the 500 mL culture media bottle into a sterile 25 mL reservoir. Using the Eppendorf multichannel pipette, 130 ul of media was pipetted from the 25 mL reservoir into row G of the 96 well u-bottom plate. Once the 250 mL bottle of media was warmed, the volume of culture needed was pipetted into the bottle, and mixed gently with a 25 mL serological pipette as to not create bubbles, and then the contents of the bottle were pipetted into a new 300 mL reservoir. Using the liquid handler, 130 ul of culture was pipetted from the 300 mL reservoir into rows B through F of the 96 well u-bottom plate. Once the culture was added, the plate was placed into a 37° C. incubator until the compound master plate was prepared for use.
Two 96 well u-bottom plates were prepared by writing the master plate name in the upper right corner of the plate lid. Labeling one DMSO master and the other Media Master. The compounds of interest were obtained from the laboratory freezer, and placed into a 25 well storage box with a lid, and set the box aside. The compounds were vortexed after thawing but before use. Using an automatic multichannel pipette, 20 ul of 100% DMSO was pipetted into wells B3-B11 through G3-G11 of the DMSO master plate. For each compound on the master plate, 50 ul of the compound were pipetted in the appropriate well of row 2 (reference plate map to determine appropriate well). A serial dilution was prepared beginning by aspirating 20 ul from row 2 and mixing with row 3, repeating until row 11 was reached. Using the liquid handler, 194 ul of Daudi media was dispensed into wells B2-B11 through G2-G11 of the Media master plate. Using the liquid handler, 6 ul from the DMSO master plate was aspirated and dispensed into the media master plate, mixing 100 ul twice.
Compounds from master plate were then added to the culture plate. The culture plates were removed from the incubator, and set inside the biosafety cabinet. Using a liquid handler, 20 ul from wells B2 to B11 through G2 to G11 of master plate were aspirated, and dispensed into wells B2 to B11 through G2 to G11 of culture plate. This set was continued with each culture plate. Once the culture plates acquired their 20 ul of compound dilutions, they were placed back into the incubator, until their reads on Day 7 of experiment.
Cell death was measured on Day 7 of the experiment using Cell-Titer Glo and a Promega Plate reader.
As to `CC(C)OC(=O)N[C@H]1CC[C@H](c2ncc(-c3ccc(CN)cc3S(=O)(=O)NC(C)(C)C)s2)CC1` [Compound 1, isopropyl (trans-4-(5-(4-(aminomethyl)-2-(N-(tert-butyl)sulfamoyl)phenyl)thiazol-2-yl)cyclohexyl)carbamate], the EC50 is more than 10 µM.

For the compound `CC(=O)NCc1ccc(-c2cnc([C@H]3CC[C@H](NC(=O)OC(C)C)CC3)s2)c(S(=O)(=O)NC(C)(C)C)c1` [Compound 2, isopropyl (trans-4-(5-(4-(acetamidomethyl)-2-(N-(tert-butyl)sulfamoyl)phenyl)thiazol-2-yl)cyclohexyl)carbamate], the EC50 is more than 10 µM.

For the compound `CC(C)OC(=O)N[C@H]1CC[C@H](c2ncc(-c3ccc(-c4cnn5ccccc45)cc3S(=O)(=O)NC(C)(C)C)s2)CC1` [Compound 3, isopropyl (trans-4-(5-(2-(N-(tert-butyl)sulfamoyl)-4-(pyrazolo[1,5-a]pyridin-3-yl)phenyl)thiazol-2-yl)cyclohexyl)carbamate], the EC50 lay within 0.1 to 1 µM.

In the case of `CC(C)OC(=O)N[C@H]1CC[C@H](c2ncc(-c3ccc(-c4cnn(CC(F)(F)F)c4)cc3S(=O)(=O)NC(C)(C)C)s2)CC1` [Compound 4, isopropyl (trans-4-(5-(2-(N-(tert-butyl)sulfamoyl)-4-(1-(2,2,2-trifluoroethyl)-1H-pyrazol-4-yl)phenyl)thiazol-2-yl)cyclohexyl)carbamate], the EC50 was in the range of 0.1 to 1 µM.

As to `CC(C)OC(=O)N[C@H]1CC[C@H](c2ncc(-c3ccc(-c4cccnc4)cc3S(=O)(=O)NC(C)(C)C)s2)CC1` [Compound 5, isopropyl (trans-4-(5-(2-(N-(tert-butyl)sulfamoyl)-4-(pyridin-3-yl)phenyl)thiazol-2-yl)cyclohexyl)carbamate], the EC50 was in the range of 1 to 10 µM.

With `CC(C)OC(=O)N[C@H]1CC[C@H](c2ncc(-c3ccc(-c4cc[nH]n4)cc3S(=O)(=O)NC(C)(C)C)s2)CC1` [Compound 6, isopropyl (trans-4-(5-(2-(N-(tert-butyl)sulfamoyl)-4-(1H-pyrazol-3-yl)phenyl)thiazol-2-yl)cyclohexyl)carbamate], the EC50 was in the range of 1 to 10 µM.

For the compound `CC(C)OC(=O)N[C@H]1CC[C@H](c2ncc(-c3ccc(-c4ccc(O)nc4)cc3S(=O)(=O)NC(C)(C)C)s2)CC1` [Compound 7, isopropyl (trans-4-(5-(2-(N-(tert-butyl)sulfamoyl)-4-(6-hydroxypyridin-3-yl)phenyl)thiazol-2-yl)cyclohexyl)carbamate], the EC50 is 1 to 10 µM.

As for `COc1ncc(-c2ccc(-c3cnc([C@H]4CC[C@H](NC(=O)OC(C)C)CC4)s3)c(S(=O)(=O)NC(C)(C)C)c2)c(OC)n1` [Compound 8, isopropyl (trans-4-(5-(2-(N-(tert-butyl)sulfamoyl)-4-(2,4-dimethoxypyrimidin-5-yl)phenyl)thiazol-2-yl)cyclohexyl)carbamate], the EC50 was 0.1 to 1 µM.

Regarding `CC(C)OC(=O)N[C@H]1CC[C@H](c2ncc(-c3ccc(-c4ccc5c[nH]nc5c4)cc3S(=O)(=O)NC(C)(C)C)s2)CC1` [Compound 9, isopropyl (trans-4-(5-(2-(N-(tert-butyl)sulfamoyl)-4-(2H-indazol-6-yl)phenyl)thiazol-2-yl)cyclohexyl)carbamate], the EC50 was in the range of 1 to 10 µM.

As for `CC(C)OC(=O)N[C@H]1CC[C@H](c2ncc(-c3ccc(-c4cnc(N)nc4)cc3S(=O)(=O)NC(C)(C)C)s2)CC1` [Compound 10, isopropyl (trans-4-(5-(4-(2-aminopyrimidin-5-yl)-2-(N-(tert-butyl)sulfamoyl)phenyl)thiazol-2-yl)cyclohexyl)carbamate], the EC50 fell in the range of 0.1 to 1 µM.

Turning to `CC(C)OC(=O)N[C@H]1CC[C@H](c2ncc(-c3ccc(-c4ccc5occc5c4)cc3S(=O)(=O)NC(C)(C)C)s2)CC1` [Compound 11, isopropyl (trans-4-(5-(4-(benzofuran-5-yl)-2-(N-(tert-butyl)sulfamoyl)phenyl)thiazol-2-yl)cyclohexyl)carbamate], the EC50 is 1 to 10 µM.

Source of the values: patent US11932636B2, “RAD51 inhibitors” (Cyteir Therapeutics, Inc., priority 2019, dated 2024).
